# pIC50: −log10 of the molar value.
# Target: ROCK2 (Homo sapiens, UniProt O75116)
# Assay: ROCK assay: phosphorylation of FITC peptide substrate, LABCHIP 3000 mobility shift
# Assay type: biochemical
# Settings: 5 μM ATP, 1.5 μM peptide substrate; read-out: ROCK2 Activity (ROCK IC50 range)
# Method in brief: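 IC50 values come from curve-fitting percent kinase inhibition across a compound dilution series. The reaction is started with Rho kinase variant in HEPES pH 7.5 buffer with MgCl2, Brij-35 and DTT, with 5 μM ATP, 1.5 μM FITC-labelled peptide and under 2% DMSO. After EDTA quench, product and substrate are separated by microfluidic mobility shift.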
# Sequence of ROCK2 (O75116 whole entry, species assumed): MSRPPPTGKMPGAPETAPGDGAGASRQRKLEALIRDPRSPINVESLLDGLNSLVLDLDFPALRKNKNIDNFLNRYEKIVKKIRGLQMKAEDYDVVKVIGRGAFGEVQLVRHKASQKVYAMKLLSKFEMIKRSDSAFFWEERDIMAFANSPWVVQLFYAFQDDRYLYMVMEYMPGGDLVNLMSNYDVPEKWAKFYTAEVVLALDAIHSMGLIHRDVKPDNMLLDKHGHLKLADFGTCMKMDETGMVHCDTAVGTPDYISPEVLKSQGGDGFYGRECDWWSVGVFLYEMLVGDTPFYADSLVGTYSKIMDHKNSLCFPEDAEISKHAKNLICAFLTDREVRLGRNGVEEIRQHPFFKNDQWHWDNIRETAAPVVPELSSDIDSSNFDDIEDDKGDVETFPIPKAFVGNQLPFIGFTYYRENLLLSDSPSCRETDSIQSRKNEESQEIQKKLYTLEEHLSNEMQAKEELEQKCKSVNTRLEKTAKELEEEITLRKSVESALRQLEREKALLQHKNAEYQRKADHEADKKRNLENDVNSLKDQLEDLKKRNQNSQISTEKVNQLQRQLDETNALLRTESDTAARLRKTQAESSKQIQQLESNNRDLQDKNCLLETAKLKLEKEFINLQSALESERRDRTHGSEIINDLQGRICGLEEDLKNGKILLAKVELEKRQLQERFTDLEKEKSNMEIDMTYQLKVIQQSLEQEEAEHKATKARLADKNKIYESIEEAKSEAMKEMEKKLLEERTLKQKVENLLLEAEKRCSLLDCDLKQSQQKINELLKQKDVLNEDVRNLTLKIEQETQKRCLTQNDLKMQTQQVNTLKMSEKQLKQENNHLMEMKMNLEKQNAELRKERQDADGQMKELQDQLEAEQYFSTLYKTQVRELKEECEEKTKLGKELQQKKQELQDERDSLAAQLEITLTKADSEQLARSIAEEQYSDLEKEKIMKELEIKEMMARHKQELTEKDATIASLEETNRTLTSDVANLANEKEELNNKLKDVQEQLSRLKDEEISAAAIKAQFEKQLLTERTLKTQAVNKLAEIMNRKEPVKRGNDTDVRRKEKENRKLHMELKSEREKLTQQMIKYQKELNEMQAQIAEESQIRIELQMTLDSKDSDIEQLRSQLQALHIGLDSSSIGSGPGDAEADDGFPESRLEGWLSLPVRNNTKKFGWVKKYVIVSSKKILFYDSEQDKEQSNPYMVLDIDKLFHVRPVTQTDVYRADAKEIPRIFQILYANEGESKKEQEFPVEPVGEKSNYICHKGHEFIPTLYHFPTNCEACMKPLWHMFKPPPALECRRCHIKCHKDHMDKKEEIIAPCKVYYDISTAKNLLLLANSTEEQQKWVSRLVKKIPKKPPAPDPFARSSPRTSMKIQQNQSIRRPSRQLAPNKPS
row,pIC50,SMILES
1,8.30 to 8.70,"Cc1noc(C)c1-c1ccc2c(C(=O)NC3CC4(C3)CC(c3n[nH]c(=O)c5ccccc35)C4)nn(CC(C)(C)O)c2c1 (stereo not shown) [Example 155, 6-(3,5-dimethylisoxazol-4-yl)-1-(2-hydroxy-2-methylpropyl)-N-((αR)-6-(4-oxo-3,4-dihydrophthalazin-1-yl)spiro[3.3]heptan-2-yl)-1H-indazole-3-carboxamide]"
2,7.82 to 8.29,"CC(C)(O)Cn1nc(C(=O)NC2CC3(C2)CC(c2n[nH]c(=O)c4ccccc24)C3)c2ccc(-c3cccc(Cl)c3)cc21 (stereo not shown) [Example 156, 6-(3-chlorophenyl)-1-(2-hydroxy-2-methylpropyl)-N-((αR)-6-(4-oxo-3,4-dihydrophthalazin-1-yl)spiro[3.3]heptan-2-yl)-1H-indazole-3-carboxamide]"
3,8.70 to 9.70,"COc1ccccc1-c1ccc2c(C(=O)NC3CC4(C3)CC(c3n[nH]c(=O)c5ccccc35)C4)nn(CC(C)(C)O)c2c1 (stereo not shown) [Example 157, 1-(2-hydroxy-2-methylpropyl)-6-(2-methoxyphenyl)-N-((αR)-6-(4-oxo-3,4-dihydrophthalazin-1-yl)spiro[3.3]heptan-2-yl)-1H-indazole-3-carboxamide]"
4,8.30 to 8.70,"COc1cccc(-c2ccc3c(C(=O)NC4CC5(C4)CC(c4n[nH]c(=O)c6ccccc46)C5)nn(CC(C)(C)O)c3c2)c1 (stereo not shown) [Example 158, 1-(2-hydroxy-2-methylpropyl)-6-(3-methoxyphenyl)-N-((αR)-6-(4-oxo-3,4-dihydrophthalazin-1-yl)spiro[3.3]heptan-2-yl)-1H-indazole-3-carobxamide]"
5,8.30 to 8.70,"CC(C)(O)Cn1nc(C(=O)NC2CC3(C2)CC(c2n[nH]c(=O)c4ccccc24)C3)c2ccc(-c3c(F)cccc3F)cc21 (stereo not shown) [Example 159, 6-(2,6-difluorophenyl)-1-(2-hydroxy-2-methylpropyl)-N-((αR)-6-(4-oxo-3,4-dihydrophthalazin-1-yl)spiro[3.3]heptan-2-yl)-1H-indazole-3-carboxamide]"
6,8.70 to 9.70,"CC(C)(O)Cn1nc(C(=O)NC2CC3(C2)CC(c2n[nH]c(=O)c4ccccc24)C3)c2ccc(-c3ccccc3C#N)cc21 (stereo not shown) [Example 160, 6-(2-cyanophenyl)-1-(2-hydroxy-2-methylpropyl)-N-((αR)-6-(4-oxo-3,4-dihydrophthalazin-1-yl)spiro[3.3]heptan-2-yl)-1H-indazole-3-carboxamide]"
7,7.82 to 8.29,"CC(C)(O)Cn1nc(C(=O)NC2CC3(C2)CC(c2n[nH]c(=O)c4ccccc24)C3)c2ccc(-c3cnoc3)cc21 (stereo not shown) [Example 161, 1-(2-hydroxy-2-methylpropyl)-6-(isoxazol-4-yl)-N-((αR)-6-(4-oxo-3,4-dihydrophthalazin-1-yl)psiro[3.3]heptan-2-yl)-1H-indazole-3-carboxamide]"
8,7.00 to 7.82,"CC(C)(O)Cn1nc(C(=O)NC2CC3(C2)CC(F)(c2n[nH]c(=O)c4ccccc24)C3)c2ccccc21 (stereo not shown) [Example 162, N-(6-fluoro-6-(4-oxo-3,4-dihydrophthalazin-1-yl)spiro[3.3]heptan-2-yl)-1-(2-hydroxy-2-methylpropyl)-1H-indazole-3-carboxamide]"
9,7.00 to 7.82,"CC(C)(O)Cn1nc(C(=O)NC2CC3(C2)CC(F)(c2n[nH]c(=O)c4ccccc24)C3)c2ccc(F)cc21 (stereo not shown) [Example 163, 6-fluoro-N-(6-fluoro-6-(4-oxo-3,4-dihydrophthalazin-1-yl)spiro[3.3]heptan-2-yl)-1-(2-hydroxy-2-methylpropyl)-1H-indazole-3-carboxamide]"
10,7.00 to 7.82,"O=C(NC1CC2(C1)CC(F)(c1n[nH]c(=O)c3ccccc13)C2)c1cnn2ccccc12 (stereo not drawn) [Example 164, N-(6-fluoro-6-(4-oxo-3,4-dihydrophthalazin-1-yl)spiro[3.3]heptan-2-yl)pyrazolo[1,5-α]pyridine-3-carboxamide]"
11,7.82 to 8.29,"O=C(N[C@H]1CC2(C1)C[C@H](c1n[nH]c(=O)c3ccccc31)C2)c1cnn2cc(N3CCCC3=O)ccc12 (stereo partly drawn) [Example 165, N-((aR)-6-(4-oxo-3,4-dihydrophthalazin-1-yl)spiro[3.3]heptan-2-yl)-6-(2-oxopyrrolidin-1-yl)pyrazolo[1,5-a]pyridine-3-carboxamide]"
12,8.70 to 9.70,"O=C(NC1CC2(C1)CC(c1n[nH]c(=O)c3ccccc13)C2)c1cnn2cc(C3CC3)ccc12 (stereo not drawn) [Example 166, 6-cyclopropyl-N-((αR)-6-(4-oxo-3,4-dihydrophthalazin-1-yl)spiro[3.3]heptan-2-yl)pyrazolo[1,5-α]pyridine-3-carboxamide]"
13,8.70 to 9.70,"O=C(NC1CC2(C1)CC(c1n[nH]c(=O)c3ccccc13)C2)c1cnn2cc(-c3cnn(C(F)F)c3)ccc12 (stereo not drawn) [Example 167, 6-(1-(difluoromethyl)-1H-pyrazol-4-yl)-N-((αR)-6-(4-oxo-3,4-dihydrophthalazin-1-yl)spiro[3.3]heptan-2-yl)pyrazolo[1,5-α]pyridine-3-carboxamide]"
14,7.82 to 8.29,"O=C(NC1CC2(C1)CC(c1n[nH]c(=O)c3ccccc13)C2)c1cnn2cc(-n3ccccc3=O)ccc12 (stereo not drawn) [Example 169, N-((αR)-6-(4-oxo-3,4-dihydrophthalazin-1-yl)spiro[3.3]heptan-2-yl)-6-(2-oxopyridin-1(2H)-yl)pyrazolo[1,5-α]pyridine-3-carboxamide]"
15,8.70 to 9.70,"Cn1cc(-c2ccc3c(C(=O)NC4CC5(C4)CC(c4n[nH]c(=O)c6ccccc46)C5)cnn3c2)cn1 (stereo not drawn) [Example 170, 6-(1-methyl-1H-pyrazol-4-yl)-N-((αR)-6-(4-oxo-3,4-dihydrophthalazin-1-yl)spiro[3.3]heptan-2-yl)pyrazolo[1,5-α]pyridine-3-carboxamide]"
16,8.30 to 8.70,"O=C(NC1CC2(C1)CC(c1n[nH]c(=O)c3ccccc13)C2)c1cnn2cc(-c3cnn(CC(O)C(F)(F)F)c3)ccc12 [Example 171, N-((αR)-6-(4-oxo-3,4-dihydrophthalazin-1-yl)spiro[3.3]heptan-2-yl)-6-(1-((S)-3,3,3-trifluoro-2-hydroxypropyl)-1H-pyrazol-4-yl)pyrazolo[1,5-α]pyridine-3-carboxamide]"
17,8.30 to 8.70,"O=C(NC1CC2(C1)CC(c1n[nH]c(=O)c3ccccc13)C2)c1cnn2cc(-c3c[nH]nc3C(F)(F)F)ccc12 (stereo not drawn) [Example 172, N-((αR)-6-(4-oxo-3,4-dihydrophthalazin-1-yl)spiro[3.3]heptan-2-yl)-6-(3-(trifluoromethyl)-1H-pyrazol-4-yl)pyrazolo[1,5-α]pyridine-3-carboxamide]"
18,8.70 to 9.70,"O=C(NC1CC2(C1)CC(c1n[nH]c(=O)c3ccccc13)C2)c1cnn2cc(-c3nccs3)ccc12 (stereo not drawn) [Example 173, N-((αR)-6-(4-oxo-3,4-dihydrophthalazin-1-yl)spiro[3.3]heptan-2-yl)-6-(thiazol-2-yl)pyrazolo[1,5-α]pyridine-3-carboxamide]"
19,8.70 to 9.70,"O=C(NC1CC2(C1)CC(c1n[nH]c(=O)c3ccccc13)C2)c1cnn2cc(-c3cn[nH]c3)ccc12 (stereo not drawn) [Example 174, N-((αR)-6-(4-oxo-3,4-dihydrophthalazin-1-yl)spiro[3.3]heptan-2-yl)-6-(1H-pyrazol-4-yl)pyrazolo[1,5-α]pyridine-3-carboxamide]"
20,7.00 to 7.82,"Cc1nnn(C)c1-c1ccc2c(C(=O)NC3CC4(C3)CC(c3n[nH]c(=O)c5ccccc35)C4)cnn2c1 (stereo not drawn) [Example 175, 6-(1,4-dimethyl-1H-1,2,3-triazol-5-yl)-N-((αR)-6-(4-oxo-3,4-dihydrophthalazin-1-yl)spiro[3.3]heptan-2-yl)pyrazolo[1,5-α]pyridine-3-carboxamide]"
21,7.82 to 8.29,"O=C(NC1CC2(C1)CC(c1n[nH]c(=O)c3ccccc13)C2)c1cnn2cc(-n3ccnc3)ccc12 (stereo not drawn) [Example 176, 6-(1H-imidazol-1-yl)-N-((αR)-6-(4-oxo-3,4-dihydrophthalazin-1-yl)spiro[3.3]heptan-2-yl)pyrazolo[1,5-α]pyridine-3-carboxamide]"
22,8.30 to 8.70,"O=C(NC1CC2(C1)CC(c1n[nH]c(=O)c3ccccc13)C2)c1cnn2cc(-n3cncn3)ccc12 (stereo not drawn) [Example 178, N-((αR)-6-(4-oxo-3,4-dihydrophthalazin-1-yl)spiro[3.3]heptan-2-yl)-6-(1H-1,2,4-triazol-1-yl)pyrazolo[1,5-α]pyridine-3-carboxamide]"
23,8.70 to 9.70,"COCCOc1ccc2c(C(=O)NC3CC4(C3)CC(c3n[nH]c(=O)c5ccccc35)C4)cnn2c1 (stereo not drawn) [Example 179, 6-(2-methoxyethoxy)-N-((αR)-6-(4-oxo-3,4-dihydrophthalazin-1-yl)spiro[3.3]heptan-2-yl)pyrazolo[1,5-α]pyridine-3-carboxamide]"
24,7.00 to 7.82,"O=C(NC1CC2(C1)CC(c1n[nH]c(=O)c3ccccc13)C2)c1cnn2cc(-n3ccc(=O)cc3)ccc12 (stereo not drawn) [Example 180, N-((αR)-6-(4-oxo-3,4-dihydrophthalazin-1-yl)spiro[3.3]heptan-2-yl)-6-(4-oxopyridin-1(4H)-yl)pyrazolo[1,5-α]pyridine-3-carboxamide]"
25,8.70 to 9.70,[H][C@]1(c2n[nH]c(=O)c3ccccc32)C[C@]2(C[C@@H](NC(=O)c3cnn4cc(OCCO)ccc34)C2)C1 (stereo partly shown) [Example 181]
26,8.30 to 8.70,"O=C(N[C@H]1CC2(C1)C[C@H](c1n[nH]c(=O)c3ccccc31)C2)c1cnn2cc(OCCN3CC(F)C3)ccc12 (stereo partly drawn) [Example 182, 6-(2-(3-fluoroazetidin-1-yl)ethoxy)-N-((aR)-6-(4-oxo-3,4-dihydrophthalazin-1-yl)spiro[3.3]heptan-2-yl)pyrazolo[1,5-a]pyridine-3-carboxamide]"

row,SMILES,pIC50
1,"N#Cc1ccc2c(C(=O)NC3CC4(C3)CC(c3n[nH]c(=O)c5ccccc35)C4)cnn2c1 (stereo not drawn) [Example 168, 6-cyano-N-((αR)-6-(4-oxo-3,4-dihydrophthalazin-1-yl)spiro[3.3]heptan-2-yl)pyrazolo[1,5-α]pyridine-3-carboxamide]",7.00 to 7.82
2,"O=C(N[C@H]1CC2(C1)C[C@H](c1n[nH]c(=O)c3ccccc31)C2)c1cnn2cc(-n3cccn3)ccc12 (stereo partly drawn) [Example 177, N-((αR)-6-(4-oxo-3,4-dihydrophthalazin-1-yl)spiro[3.3]heptan-2-yl)-6-(1H-pyrazol-1-yl)pyrazolo[1,5-α]pyridine-3-carboxamide]",8.70 to 9.70

# — patent US9902702B2, “Spirocycloheptanes as inhibitors of rock” (BRISTOL-MYERS SQUIBB COMPANY, priority 2014, dated 2018)
